Earlier results in patent US20020160947A1, “Synergistic method for prolonging allograft survival” (Millennium Pharmaceuticals, Inc., priority 2001, published 2002).

System: activated T-cells
Settings: activated versus resting T cells

CC(=O)N[C@@H](CSC(=O)[C@]1([C@@H](O)C(C)C)NC(=O)[C@H](C)[C@@H]1O)C(=O)O [lactacystin]
induction of apoptosis of T cells: induction of apoptosis of activated T-cells, but not resting T cells
